These results are taken from US9585854B2, “N-acetyl-L-cysteine for use in in vitro fertilization” (IASOMAI AB, priority 2012, dated 2017).

Read-outs that look alike come from different tables or passages of the source.

Data set [1] deals with human spermatozoa. Kind of data set: human sperm motility bioassay (toxicity test). The format is cell-based. The procedure:
The eventual occurrence of NAC embryotoxicity was preliminary tested.
Assessments of human sperm motility were performed on fresh samples taken from 3 healthy donors with good seminal parameters including sperm motility and velocity. Migration or “Swim-up” on human sperm preparation medium was applied to select motile spermatozoa. After selection each semen sample was divided into 3 aliquots transferred to Eppendorf tubes. In addition to one control tube, two tubes had NAC added at concentrations of 100 and 1,000 nM. Tubes were incubated in a 5% CO2 environment, with constant temperature and humidity conditions for 24 hours. Sperm motility was assessed using a contrast phase microscope at a 400 times magnification after 1, and 24 hours of exposure to NAC. Assessment was performed over a fixed time interval of 2 minutes. Nine samples were assessed for sperm motility and velocity by 36 measurements (2 measurements at 1 and 24 h per sample).

For data set [2], the system named is 1-cell rabbit embryos. Kind of data set: rabbit embryo bioassay (embryotoxicity).
Text: (§1) To verify the embryotoxicity of NAC the application of two embryotoxicity techniques—rabbit embryo bioassay and human sperm motility bioassay—were used.
For data set [3] the following is noted: cited from earlier work.
The test system of data set [4] is 1-cell rabbit embryos.
Text: as §1
Data set [5] has as its system embryo implantation. Kind of data set: embryo implantation in oxytocin-treated mice. The format is in vivo. To be noted: oxytocin-treated mice. From the text: Indeed, in mice, NAC was confirmed to support embryo implantation. In the animal model, embryo implantation rate was decreased when the mice were given oxytocin.
In mice, NAC was confirmed to support embryo implantation. In the animal model, embryo implantation rate was decreased when the mice were given oxytocin.

For data set [6] the following is noted: cited from earlier work. This is another data set of the same source.
For data set [7], the system named is IVF. Kind of data set: NAC administration in connection with IVF treatment (clinical outcome). Format: in vivo, human. From the text:
To date, NAC has not been considered a drug in fertility treatment although it has been used for oral treatment of endometrioses as described in EP 2305238. In that study no conclusions about pregnancies were made. To the contrary when being treated for endometriosis it was not expected that any pregnancies could occur. […] This was one of the reasons why the present inventors started investigating whether NAC could be used in connection with IVF.
Already from the start of IVF it has been a problem that the clinical outcome in IVF treatment is low.
The composition of the present invention, comprising NAC for the treatment of IVF according to one embodiment to be administered intravenously at a dose between approximately 50 and 150 mg/kg/day.
In still another embodiment of the present invention the composition comprises NAC to be administered orally at a dose of approximately 30-45 mg/kg/day.

The subject of data set [8] is normal human epidermal keratinocytes. Nature of the data set: micro array gene expression analysis (Affymetrix GeneChip). Format: cell-based. To be noted: vs untreated. The method, then: The present experiments were carried out to elucidate if NAC treatment influence integrin and fibronectin gene expression by gene expression analysis using the Affymetrix GeneChip platform.
A micro array based gene expression analysis of the normal human epidermal keratinocytes was performed 1 and 12 hours after addition of NAC, compared to untreated (i.e. control samples at the same time points). Data obtained from GeneChip analysis were processed using the RNA analysis approach and samples were normalized to their corresponding controls. Filtering was done based on two criteria (p-value <0.1 and >1.5 fold up- or >0.5 down-regulation) for each time point. The labelling and hybridisation was done in duplicate.

The mark [9] stands for this setting: concentrations up to 50-fold therapeutic blood concentrations.

As for `CC(=O)N[C@@H](CS)C(=O)O` [NAC, N-acetyl-L-cysteine], the “adverse influence on human spermatozoa” value in data set [1] was “failed to show an adverse influence”. In data set [1] (NAC 100 and 1,000 nM, 1 and 24 hours of exposure), the “human sperm motility or velocity compared to controls” value is “no effects”. The embryotoxic effect entry in data set [1] (setting [9]) and in data set [2] (setting [9]) was “failed to detect an embryotoxic effect” each time. Also, the “percentage of hatched rabbit blastocysts” value in data set [2] is “not to decrease the percentage of hatched rabbit blastocysts”. The “NAC plasma level after prolonged treatments” value in data set [3] (Pendyala and Creaven 1995) is listed as “decrease in NAC plasma level”. For the same compound, in data set [3] (in vivo), the “diffusion in tissues and cells” value was “freely diffuses in almost all tissues and cells”. Besides, the “peak concentration in plasma reached in” value in data set [3] (in vivo) is recorded as “about one”. In addition, the half-life entry in data set [3] (plasma) is given as “about three”. In addition, in data set [4], the “survival of 1-cell rabbit embryos” value is given as “not to affect the survival of 1-cell rabbit embryos”. In addition, the implantation rates result in data set [5] was “dose-dependently restored”. In addition, the side effects entry in data set [6] (daily total NAC dose, per os) is on record as “virtually free of side effects”; in data set [6] (intravenous, higher limit 150 mg/kg/day) it was “virtually no side effects”. For the same compound, in data set [6] (general, doses in paracetamol poisoning about 40 g/day for 70 kg), the undesired side effect result is “virtually absent of undesired side effect”. For the same compound, the live births result in data set [7] (NAC preferably a few days prior to IVF treatment) is listed as “higher percentage of live births”. The “effectiveness in IVF” value in data set [7] (intravenous, lower limit approximately 50 mg/kg/day) was “effective in IVF”. In addition, in data set [7] (one person who had taken NAC orally for endometriosis, two previous IVF trials failed), the IVF outcome is given as “successful IVF treatment”. Moreover, in data set [7] (oral, approximately 30-45 mg/kg/day), the “effect in connection with IVF” value is “give effect in connection with IVF”. For the same compound, the “integrin alpha 2 gene expression” value in data set [8] (1 hr after NAC treatment) was “up-regulated”. For the same compound, in data set [8] (12 hours after NAC), the fibronectin gene expression entry is “upregulated”.
